What was measured:
Assay type in all cases: in vivo
[1] = test system: Tetranychus urticae; assay: Tetranychus test, OP-resistant (TETRUR spray treatment); details: application rate 100 g/ha; bean leaf discs; after 6 days
In short: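 Bean leaf discs infested with all stages of OP-resistant T. urticae sprayed with compound formulated in acetone/DMF plus alkylaryl polyglycol ether emulsifier, diluted in water. Efficacy (% mites killed) scored after 6 days.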

[2] = test system: Spodoptera litura; assay: Spodoptera litura test (PRODLI); details: application rate 20 ppm; synthetic feed, L3 larvae; after 6 days
Description: Spodoptera litura Test (PRODLI) Solvent: 3 parts by weight of dimethylformamide Emulsifier: 1 part by weight of polyoxyethylene alkylphenyl ether To produce an appropriate active ingredient formulation, 1 part by weight of active ingredient is mixed with the stated amounts of solvent and emulsifier, and the concentrate is diluted with emulsifier-containing water to the desired concentration. The base of a PET vessel (diameter 7.5 cm, depth 4 cm) is covered with 2.3 g of a pulverulent synthetic feed mixture. Then 5 ml of the active ingredient formulation are added and mixed at the same time with the synthetic feed. After gelation, 5 L3 larvae of the cotton leafworm (Spodoptera litura) are placed into each vessel. After 6 days, the efficacy in % is determined 100% means that all of the larvae have been killed; 0% means that none of the larvae have been killed.

[3] = test system: adult Musca domestica; assay: Musca domestica test (MUSCDO); details: application rate 100 ppm; treated sponge; after 2 days
In short: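 Compound dissolved in DMSO and diluted with water to the desired concentration was applied to a sponge, and vessels were populated with adult flies. Kill % was scored after 2 days, where 100% means all flies dead.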

[4] = test system: Ctenocephalides felis; assay: Ctenocephalides felis oral (CTECFE); details: application rate 100 ppm in citrated cattle blood; after 2 days
In short: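 About 20 unfed adult fleas fed through a Parafilm membrane on citrated cattle blood containing the compound at the desired concentration, diluted from a DMSO concentrate. Kill in % was scored after 2 days, where 100% means all fleas dead and 0% none.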

[5] = test system: Tetranychus urticae; assay: Common spider mite test (TETRUR); details: application rate 100 ppm; bean leaf discs; after 6 days
Description: Common Spider Mite Test (TETRUR) Solvent: 3 parts by weight of dimethylformamide Emulsifier: 1 part by weight of polyoxyethylene alkylphenyl ether To produce an appropriate active ingredient formulation, 1 part by weight of active ingredient is mixed with the stated amounts of solvent and emulsifier, and the concentrate is diluted with emulsifier-containing water to the desired concentration. If required, ammonium salts or ammonium salts and penetrants are additionally added in a concentration of 1000 ppm. Discs of bean leaves (Phaseolus vulgaris) infested by all stages of the red spider mite (Tetranychus urticae) are sprayed with an active ingredient formulation of the desired concentration. After 6 days, the efficacy in % is determined. 100% means that all of the spider mites have been killed; 0% means that none of the spider mites have been killed.

[6] = test system: Myzus persicae; assay: Myzus persicae spray test (MYZUPE - OP/Carb-resistant); details: application rate 100 ppm; aubergine plants; after 6 days
Description: Myzus persicae Spray Test (MYZUPE—OP/Carb-Resistant)
Solvent: 3 parts by weight of dimethylformamide
Emulsifier: 1 part by weight of polyoxyethylene alkylphenyl ether
To produce an appropriate active ingredient formulation, 1 part by weight of active ingredient is mixed with the stated amounts of solvent and emulsifier, and the concentrate is diluted with emulsifier-containing water to the desired concentration. If required, ammonium salts or ammonium salts and penetrants are additionally added in a concentration of 1000 ppm.
Aubergine plants (Solanum melongena) at the 2-leaf stage, which have been infested with a mixed population of the green peach aphid (Myzus persicae), are sprayed with an active ingredient formulation of the desired concentration.
After 6 days, the efficacy in % is determined. 100% means that all of the aphids have been killed; 0% means that none of the aphids have been killed.

[7] = test system: Phaedon cochleariae; assay: Phaedon test (PHAECO spray treatment); details: application rate 100 g/ha, Chinese cabbage leaf discs, after 7 days
In short: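 Chinese cabbage leaf discs were sprayed with compound in acetone/DMF with emulsifier, diluted in water to the test concentration. After drying, discs were infested with mustard beetle larvae. Efficacy in % was scored after 7 days, where 100% means all larvae were killed and 0% means none.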

[8] = test system: Aulacophora femoralis; assay: Aulacophora femoralis spray test (AUACFE); details: application rate 20 ppm; cucumber plants, L2 larvae; after 6 days
Description: Aulacophora femoralis Spray Test (AUACFE) Solvent: 3 parts by weight of dimethylformamide Emulsifier: 1 part by weight of polyoxyethylene alkylphenyl ether To produce an appropriate active ingredient formulation, 1 part by weight of active ingredient is mixed with the stated amounts of solvent and emulsifier, and the concentrate is diluted with emulsifier-containing water to the desired concentration. If required, ammonium salts or ammonium salts and penetrants are additionally added in a concentration of 1000 ppm. Young cucumber plants (Cucumis sativus) at the cotyledonous leaf stage are sprayed with an active ingredient formulation of the desired concentration. After drying, the treated plant material is introduced into test vessels and each is infected with 5 L2 larvae of the cucurbit leaf beetle (Aulacophora femoralis). After 6 days, the efficacy in % is determined. 100% means that all of the beetle larvae have been killed; 0% means that none of the beetle larvae have been killed.

| SMILES | efficacy in % [1] [%] | efficacy in % [2] [%] | efficacy (kill in %) [3] [%] | efficacy (kill in %) [4] [%] | efficacy in % [5] [%] | efficacy in % [6] [%] | efficacy in % [7] [%] | efficacy in % [8] [%] | pest or weed control at 100 g/ha ([7]; Phaedon cochleariae, foliar, 168 h, read-out: efficacy in %) [%] |
| --- | --- | --- | --- | --- | --- | --- | --- | --- | --- |
| C#CCn1c(C(=O)NC(c2ccc(F)c(C(F)(F)F)c2)C(F)(F)F)cc2cc(C(=O)NC3CC3)c(Cl)cc21 (stereo not shown) [Compound 6] | 80 | 100 | 100 | 100 | 100 | 90 | 100 | 100 |  |
| CCn1c(C(=O)NC(c2cccc(C(F)(F)F)c2)C(F)(F)F)cc2cc(C(=O)NC3(C#N)CC3)c(Cl)cc21 (stereo not shown) [Compound 7, 6-chloro-N^5-(1-cyanocyclopropyl)-1-ethyl-N^2-{2,2,2-trifluoro-1-[3-(trifluoromethyl)phenyl]ethyl}-1H-indole-2,5-dicarboxamide] | 100 | 100 | 100 | 100 | 100 | 98 |  | 100 | 100 |

Reference: US9107411B2, “Indolecarboxamides and benzimidazolecarboxamides as insecticides and acaricides” (BAYER INTELLECTUAL PROPERTY GMBH, priority 2011, dated 2015)
